Counter-ions that a name gives are not always drawn. Like-named read-outs stand apart in the source and are kept apart here.
Columns and labels:
Nrf2-Keap1 Pathway = test: DiscoverRx PathHunter Nrf2-Keap1 nuclear translocation biosensor assay; format: cell-based; conditions: agonist mode, 6 hours incubation at room temperature; read-out: Nrf2 activation EC50
Excerpt: The PathHunter® Nuclear Translocation assay detects translocation of a target protein to, or from, the nucleus. In this system, Prolink™ (PK), a small enzyme fragment, is fused to the protein of interest and Enzyme Acceptor (EA) is localized in the nucleus. Activation of the signaling pathway induces the target protein to either transit into the nucleus, thus forcing complementation of the PK and EA fragments, or out of the nucleus, hindering complementation of the fragments. PathHunter Pathway cell lines were expanded from freezer stocks according to standard procedures. 5000 cells were seeded in Cell Plating Reagent 0 (containing 1% FBS) to a total volume of 20 μL into white walled, 384-well microplates and incubated for the overnight prior to testing. For Agonist determination, cells were incubated with sample to induce response. Dilution of sample stocks was performed to generate 100× sample in DMSO. […] Vehicle concentration was 1%. Assay signal was generated through a single addition of 25 μL (100% v/v) of PathHunter Flash Detection reagent, followed by a one hour incubation at room temperature. Microplates were read following signal generation with a PerkinElmer Envision™ instrument for chemiluminescent signal detection. Compound activity was analyzed using CBIS data analysis suite (ChemInnovation, CA). For agonist mode assays, percentage activity was calculated using the following formula: % Activity=100%×(mean RLU of test sample−mean RLU of vehicle control)/(mean MAX RLU control ligand−mean RLU of vehicle control).

[1] = tested on: Nrf2 (ARE-luciferase reporter), DLD-1/ARE-E2; test: ARE-luciferase reporter assay of Nrf2 activation, DLD-1/ARE-E2 cells; format: cell-based, human; conditions: summary for DLD-1 and MCF-7 reporter cell lines
Procedure: Human cancer cell line DLD-1 and breast cancer cell line MCF7 reporter stable cell lines were generated by transfection with a firefly luciferase reporter construct harboring the luciferase cDNA cloned downstream of eight catenated copies of the antioxidant response element ([…] ID NO.:1). See Wang et al. Cancer Res. 2006; 66:10983-94. To measure Nrf2 activation in the ARE-luciferase reporter cell lines, the cells were plated in 96-well plates at 20-50 k cells/well 24 hours prior to stimulation with the test compounds. […] The reporter cells were harvested 24 hours-48 hours after addition of the compounds and lysed for detection of luciferase activity. Luciferase activity in the lysates was monitored using the Bright-Glo Luciferase Assay System of Promega and Tecan Genios Pro plate reader. Luciferase induction in the compound-treated cells was calculated as fold change over the baseline activity detected in control cultures treated with DMSO-containing media.

[2] = Oral cassette co-administration PK with DMF in male SD rats (plasma, LC/MS/MS); conditions: equivalent oral dose of 50 mg/kg of DMF, same study
[3] = Oral PK at 100 mg/kg in male SD rats; conditions: in vivo, rat, read-out: half-life of MMF (converted)
Procedure: The concentration of the compounds was determined by LC/MS/MS. […] The concentration of D-MMF was determined by LC/MS/MS. […] The concentration of D-MMF was determined by LC/MS/MS.

| Structure (SMILES) | EC50 (Nrf2-Keap1 Pathway) | activation of ARE-dependent signaling of the luciferase reporter construct [1] | oral exposure compared to DMF [2] | half-life ([3]; male, SD, 100 mg/Kg oral dose) | half-life ([3]; oral, 100 mg/Kg, species not stated for this figure) |
| --- | --- | --- | --- | --- | --- |
| COC(=O)/C=C/C(=O)OC [DMF, dimethyl fumarate, reference compound] | 5.4 µM | – | – | – | – |
| O=C(O)/C=C/C(=O)O.[2H]C([2H])([2H])OC(=O)/C=C/C(=O)OC([2H])([2H])[2H] [Example 1, (^2H6)dimethyl Fumaric Acid Ester] | 6.57 µM | able to activate ARE-dependent signaling | higher oral exposure | – | – |
| O=C(O)/C=C/C(=O)O.[2H]C([2H])([2H])OC(=O)/C=C/C(=O)O [Example 2, (^2H3)methyl Fumaric Acid Ester] | – | able to activate ARE-dependent signaling | – | – | – |
| [2H]/C(C(=O)OC)=C(/[2H])C(=O)OC [Example 4] | 4.78 µM | – | higher oral exposure | – | – |
| [2H]/C(C(=O)O)=C(/[2H])C(=O)O.[2H]/C(C(=O)OC([2H])([2H])[2H])=C(/[2H])C(=O)OC([2H])([2H])[2H] [Example 8] | 7.97 µM | – | higher oral exposure | – | – |
| COC(=O)/C=C/C(=O)O [MMF, monomethyl fumarate] | – | – | – | 54 min | ~60 min |
